From patent publication US20060067923A1, “Preventing agent against drug-resistant bacterial infection” (priority 2004, published 2006)
≈ marks a conversion by molar mass, not a printed value. Like-named read-outs stand apart in the source and are kept apart here. Positions of bridges follow the written chain, without caps; N, C: chain ends. Non-standard residues stand in square brackets, D forms with d. Residues, ends and D or L forms follow the SMILES beside them. *: point of attachment. Ileψ(thiazoline)Cys = CC[C@H](C)[C@H](N)C1=N[C@H](C(=O)*)CS1; dOrn = NCCC[C@@H](N)C(=O)O

System: Enterococcus faecalis ATCC 51299 strain
Assay: MIC levels of antibiotics against Vancomycin-resistant bacteria
Assay type: cell-based
Description: Enterococcus faecalis ATCC 51299 strain was used as Vancomycin-resistant bacteria.

[1] = Enterococcus faecalis, ATCC51299, 16 h; read-out: MIC levels after 16 hours of culture
[2] = Enterococcus faecalis, ATCC51299, 24 h; read-out: MIC levels after 24 hours of culture

CC1(C)S[C@@H]2[C@H](NC(=O)[C@H](N)c3ccccc3)C(=O)N2[C@H]1C(=O)O [Ampicillin]
MIC [1]: 0.5 µg/mL (≈ 1.43 µM) | MIC [2]: 0.5 µg/mL (≈ 1.43 µM)

CC[C@H](C)[C@H](N)C1=N[C@H](C(=O)N[C@@H](CC(C)C)C(=O)N[C@H](CCC(=O)O)C(=O)N[C@H](C(=O)N[C@H]2CCCCNC(=O)[C@H](CC(N)=O)NC(=O)[C@@H](CC(=O)O)NC(=O)[C@H](Cc3cnc[nH]3)NC(=O)[C@@H](Cc3ccccc3)NC(=O)[C@H]([C@@H](C)CC)NC(=O)[C@@H](CCCN)NC2=O)[C@@H](C)CC)CS1 [Bacitracin] ({Ileψ(thiazoline)Cys}-L[dE]IK[dOrn]I[dF]H[dD]N; lactam 4-C)
MIC [1]: 64 µg/mL (≈ 45 µM) | MIC [2]: 128 µg/mL (≈ 90 µM)

O=C(N[C@H](CO)[C@H](O)c1ccc([N+](=O)[O-])cc1)C(Cl)Cl [Chloramphenicol]
MIC [1]: 64 µg/mL (≈ 198 µM) | MIC [2]: 128 µg/mL (≈ 396 µM)

CC[C@H]1OC(=O)[C@H](C)[C@@H](O[C@H]2C[C@@](C)(OC)[C@@H](O)[C@H](C)O2)[C@H](C)[C@@H](O[C@@H]2O[C@H](C)C[C@H](N(C)C)[C@H]2O)[C@](C)(O)C[C@@H](C)C(=O)[C@H](C)[C@@H](O)[C@]1(C)O [Erythromycin]
MIC [1]: 512 µg/mL (≈ 698 µM) | MIC [2]: > 512 µg/mL

Cc1onc(-c2ccccc2)c1C(=O)N[C@@H]1C(=O)N2[C@@H]1SC(C)(C)[C@@H]2C(=O)O [Oxacillin]
MIC [1]: 32 µg/mL (≈ 79.7 µM) | MIC [2]: 64 µg/mL (≈ 159 µM)

[H]/N=C(/N)N[C@H]1[C@H](O)[C@@H](O)[C@H](O[C@@H]2O[C@@H](C)[C@](O)(C=O)[C@H]2O[C@@H]2O[C@@H](CO)[C@H](O)[C@@H](O)[C@@H]2NC)[C@@H](N/C(N)=N\[H])[C@@H]1O [Streptomycin]
MIC [1]: > 512 µg/mL | MIC [2]: > 512 µg/mL

CN(C)[C@@H]1C(O)=C(C(N)=O)C(=O)[C@@]2(O)C(O)=C3C(=O)c4c(O)cccc4[C@@](C)(O)[C@H]3C[C@@H]12 [Tetracycline]
MIC [1]: 0.5 µg/mL (≈ 1.13 µM) | MIC [2]: 1 µg/mL (≈ 2.25 µM)

CN[C@H](CC(C)C)C(=O)N[C@H]1C(=O)N[C@@H](CC(N)=O)C(=O)N[C@H]2C(=O)N[C@H]3C(=O)N[C@H](C(=O)N[C@H](C(=O)O)c4cc(O)cc(O)c4-c4cc3ccc4O)[C@H](O)c3ccc(c(Cl)c3)Oc3cc2cc(c3O[C@@H]2O[C@H](CO)[C@@H](O)[C@H](O)[C@H]2O[C@H]2C[C@](C)(N)[C@H](O)[C@H](C)O2)Oc2ccc(cc2Cl)[C@H]1O [Vancomycin]
MIC (Enterococcus faecalis, ATCC51299, 16 h, read-out: MIC levels after 16 hours of culture): 16 µg/mL (≈ 11 µM) | MIC (Enterococcus faecalis, ATCC51299, 24 h, read-out: MIC levels after 24 hours of culture): 64 µg/mL (≈ 44.2 µM)

Gentamicin
MIC levels after 16 hours of culture (16 hours of culture): >512 µg/mL | MIC levels after 24 hours of culture (24 hours of culture): >512 µg/mL

Teicoplanin
MIC levels after 16 hours of culture (16 hours of culture): 1 µg/mL | MIC levels after 24 hours of culture (24 hours of culture): 1 µg/mL
